Key:
NURR-1/RXRα = target: T1, NURR-1/RXRα (Homo sapiens, UniProt P19793); assay: Transactivation test, NURR-1-Gal4/RXRα, luciferase reporter in Cos-7 cells; format: cell-based; settings: for Emax: COS-7, induction level relative to reference XCT0135908 at 2×10^−5 M (=100%), read-out: hNurr1_RXRaFL Emax (%); for EC50: Cos-7 cells, NURR-1-Gal4/RXRα, luciferase reporter, read-out: hNurr1_RXRaFL EC50
T1 construct: expressed in transfected cells; host or cells: Cos-7 cells

NURR-1/RXRγ = target: T2, NURR-1/RXRγ (Homo sapiens, UniProt P48443); assay: Transactivation test, NURR-1-Gal4/RXRγ, luciferase reporter in Cos-7 cells; format: cell-based; settings: for Emax: COS-7, induction level relative to reference XCT0135908 at 2×10^−5 M (=100%), read-out: hNurr1_RXRgFL Emax (%); for EC50: Cos-7 cells, NURR-1-Gal4/RXRγ, luciferase reporter, read-out: hNurr1_RXRgFL EC50
T2 construct: expressed in transfected cells; host or cells: Cos-7 cells
T2 sequence (P48443 whole entry, the tested form may be a part): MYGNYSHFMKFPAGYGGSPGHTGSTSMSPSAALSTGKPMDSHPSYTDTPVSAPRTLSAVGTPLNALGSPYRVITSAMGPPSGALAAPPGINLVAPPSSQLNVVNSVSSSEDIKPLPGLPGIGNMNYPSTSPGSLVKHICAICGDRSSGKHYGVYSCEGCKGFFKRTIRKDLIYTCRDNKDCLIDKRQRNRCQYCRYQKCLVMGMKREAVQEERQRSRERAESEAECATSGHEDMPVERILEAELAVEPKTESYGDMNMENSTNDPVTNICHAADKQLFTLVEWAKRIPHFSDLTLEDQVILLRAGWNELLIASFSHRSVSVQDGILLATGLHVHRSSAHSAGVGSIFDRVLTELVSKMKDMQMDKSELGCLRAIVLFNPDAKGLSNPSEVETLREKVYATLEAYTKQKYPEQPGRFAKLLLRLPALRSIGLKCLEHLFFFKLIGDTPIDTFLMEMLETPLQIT
T2 sequence (P43354 whole entry partner, the tested form may be a part): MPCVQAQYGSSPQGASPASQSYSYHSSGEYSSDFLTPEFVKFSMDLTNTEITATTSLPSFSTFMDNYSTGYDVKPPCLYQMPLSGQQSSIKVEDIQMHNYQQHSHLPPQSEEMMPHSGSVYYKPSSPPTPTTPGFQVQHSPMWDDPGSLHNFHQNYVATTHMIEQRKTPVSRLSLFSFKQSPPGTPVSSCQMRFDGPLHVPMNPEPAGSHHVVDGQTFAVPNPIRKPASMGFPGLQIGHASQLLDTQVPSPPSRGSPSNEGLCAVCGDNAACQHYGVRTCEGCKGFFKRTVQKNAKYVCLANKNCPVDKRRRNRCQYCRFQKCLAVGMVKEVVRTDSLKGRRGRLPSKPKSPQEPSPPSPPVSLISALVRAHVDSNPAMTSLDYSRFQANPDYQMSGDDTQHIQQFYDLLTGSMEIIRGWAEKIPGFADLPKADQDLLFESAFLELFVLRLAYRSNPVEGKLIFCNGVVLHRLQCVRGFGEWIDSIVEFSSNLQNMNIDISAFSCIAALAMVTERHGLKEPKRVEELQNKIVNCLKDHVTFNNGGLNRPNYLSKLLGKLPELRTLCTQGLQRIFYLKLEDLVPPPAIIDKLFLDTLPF
T2 sequence (P04386 1-147 partner limits assumed): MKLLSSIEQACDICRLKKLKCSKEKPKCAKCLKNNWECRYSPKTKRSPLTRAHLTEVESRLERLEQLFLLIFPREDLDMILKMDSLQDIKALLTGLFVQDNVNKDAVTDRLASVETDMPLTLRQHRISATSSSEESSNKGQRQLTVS

T1 sequence (P19793 whole entry, the tested form may be a part): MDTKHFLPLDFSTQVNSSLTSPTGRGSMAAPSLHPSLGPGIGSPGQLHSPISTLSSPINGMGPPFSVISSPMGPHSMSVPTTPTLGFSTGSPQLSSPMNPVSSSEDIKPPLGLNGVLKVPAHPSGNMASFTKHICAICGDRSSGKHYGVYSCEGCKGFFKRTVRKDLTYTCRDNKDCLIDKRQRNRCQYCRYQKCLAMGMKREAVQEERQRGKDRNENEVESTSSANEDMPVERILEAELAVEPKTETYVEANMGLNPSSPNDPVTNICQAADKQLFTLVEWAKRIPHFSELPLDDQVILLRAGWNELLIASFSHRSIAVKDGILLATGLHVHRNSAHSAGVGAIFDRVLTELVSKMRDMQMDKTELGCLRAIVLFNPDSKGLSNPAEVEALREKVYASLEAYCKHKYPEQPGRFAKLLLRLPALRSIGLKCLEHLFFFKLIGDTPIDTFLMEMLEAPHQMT
T1 sequence (P43354 whole entry partner, the tested form may be a part): as the sequence (P43354 whole entry partner, the tested form may be a part) above
T1 sequence (P04386 1-147 partner limits assumed): as the sequence (P04386 1-147 partner limits assumed) above

Row | Emax (NURR-1/RXRα) [%] | EC50 (NURR-1/RXRα) [µM] | Emax (NURR-1/RXRγ) [%] | EC50 (NURR-1/RXRγ) [µM] | melting point [°C] | SMILES
1 | 98 | 0.004 | 96 | 0.006 | 96 to 100 | CC1(C)CCC2C(C1)c1cc(C(F)(F)F)ccc1N2c1cccc(N2CC(C(=O)O)C2)c1 (centres unmarked) [Example 145, 1-[3-[3,3-dimethyl-6-(trifluoromethyl)-2,4,4a,9a-tetrahydro-1H-carbazol-9-yl]phenyl]azetidine-3-carboxylic acid]
2 | 96 | 0.01 | 107 | 0.017 | 61 to 65 | O=C(O)C1CN(c2cccc(N3c4ccc(C(F)(F)F)cc4C4CCCC43)c2)C1 (centres unmarked) [Example 146, 1-[3-[7-(trifluoromethyl)-2,3,3a,8b-tetrahydro-1H-cyclopenta[b]indol-4-yl]phenyl]azetidine-3-carboxylic acid]
3 | 122 | 0.031 | 130 | 0.056 | 134 to 144 | CC(C)Cn1c(=O)n(-c2cccc(N3CC(C(=O)O)C3)c2)c2ccc(C(F)(F)F)cc21 [Example 148]
4 | 89 | 0.004 | 79 | 0.004 | 99 to 109 | Cc1cn(-c2cccc(N3CC(C(=O)NS(C)(=O)=O)C3)c2)c2ccc(C(F)(F)F)cc12 [Example 150, N-methylsulfonyl-1-[3-[3-methyl-5-(trifluoromethyl)indol-1-yl]phenyl]azetidine-3-carboxamide]
5 | 90 | 0.005 | 91 | 0.007 | 182 to 184 | Cc1cn(-c2cccc(N3CC(C(=O)NC4CC4)C3)c2)c2ccc(C(F)(F)F)cc12 [Example 184, N-cyclopropyl-1-[3-[3-methyl-5-(trifluoromethyl)indol-1-yl]phenyl]azetidine-3-carboxamide]
6 | 95 | 0.005 | 90 | 0.007 | 160 to 163 | Cc1cn(-c2cccc(N3CC(C(N)=O)C3)c2)c2ccc(C(F)(F)F)cc12 [Example 185, 1-[3-[3-methyl-5-(trifluoromethyl)indol-1-yl]phenyl]azetidine-3-carboxamide]
7 | 100 | 0.007 | 98 | 0.009 | 67 to 74 | CC1(C)CNc2c(cc(OC(F)(F)F)cc2-c2cccc(N3CC(C(=O)O)C3)c2)O1 [Example 188, 1-[3-[2.2-dimethyl-7-(trifluoromethoxy)-3,4-dihydro-1,4-benzoxazin-5-yl]phenyl]azetidine-3-carboxylic acid]
8 | 110 | 0.013 | 119 | 0.475 | 81 to 88 | CC1(C)CNc2c(cc(Cl)cc2-c2cccc(N3CC(C(=O)O)C3)c2)O1 [Example 189, 1-[3-(7-chloro-2,2-dimethyl-3,4-dihydro-1,4-benzoxazin-5-yl)phenyl]azetidine-3-carboxylic acid]
9 | 110 | 0.018 | 109 | 0.036 | 82 to 90 | Cc1cc2c(c(-c3cccc(N4CC(C(=O)O)C4)c3)c1)NCC(C)(C)O2 [Example 190, 1-[3-(2,2,7-trimethyl-3,4-dihydro-1,4-benzoxazin-5-yl)phenyl]azetidine-3-carboxylic acid]
10 | 90 | 0.031 | 91 | 0.047 | 78 to 83 | CC(C)c1cc2c(c(-c3cccc(N4CC(C(=O)O)C4)c3)c1)NCC(C)(C)O2 [Example 191, 1-[3-(7-isopropyl-2,2-dimethyl-3,4-dihydro-1,4-benzoxazin-5-yl)phenyl]azetidine-3-carboxylic acid]
11 | 92 | 0.04 | 89 | 0.102 | 70 to 74 | CC1(C)CNc2c(cc(C3CC3)cc2-c2cccc(N3CC(C(=O)O)C3)c2)O1 [Example 192, 1-[3-(7-cyclopropyl-2,2-dimethyl-3,4-dihydro-1,4-benzoxazin-5-yl)phenyl]azetidine-3-carboxylic acid]
12 | 109 | 1.17 | 85 | 0.799 | 144 to 152 | COc1cc2c(c(-c3cccc(N4CC(C(=O)[O-])C4)c3)c1)NCC(C)(C)O2.[Na+] [Example 193, sodium 1-[3-(7-methoxy-2,2-dimethyl-3,4-dihydro-1,4-benzoxazin-5-yl)phenyl]azetidine-3-carboxylate]
13 | 55 | 0.014 | 50 | 0.034 | 83 to 95 | CC1Nc2c(cc(C(F)(F)F)cc2-c2cccc(N3CC(C(=O)O)C3)c2)OC1(C)C (centres unmarked) [Example 197, 1-[3-[2,2,3-trimethyl-7-(trifluoromethyl)-3,4-dihydro-1,4-benzoxazin-5-yl]phenyl]azetidine-3-carboxylic acid]
14 | 71 | 0.014 | 59 | 0.038 | 88 to 89 | CC(C)C1CNc2c(cc(C(F)(F)F)cc2-c2cccc(N3CC(C(=O)O)C3)c2)O1 (centres unmarked) [Example 198, 1-[3-[2-isopropyl-7-(trifluoromethyl)-3,4-dihydro-2H-1,4-benzoxazin-5yl]phenyl]azetidine-3-carboxylic acid]
15 | 99 | 0.284 | 65 | 0.76 | 75 to 81 | O=C(O)C1CN(c2cccc(-c3cc(C(F)(F)F)cc4c3NCCC4)c2)C1 [Example 201, 1-[3-[6-(trofluromethyl)-1,2,3,4-tetrahydroquinolin-8-yl]phenyl]azetidine-3-carboxylic acid]
16 | 55 | 0.309 | 51 | 0.303 | 160 to 169 | CC1(C)CNc2cc(C(F)(F)F)cc(-c3cccc(N4CC(C(=O)O)C4)c3)c2O1 [Example 202, 1-[3-[2,2-dimethyl-6-(trifluoromethyl)-3,4-dihydro-1,4-benzoxazin-8-yl]phenyl]azetidine-3-carboxylic acid]
17 | 87 | 0.003 | 84 | 0.003 | 163 to 173 | CC1(C)CNc2c(cc(C(C)(C)C)cc2-c2cccc(N3CC(C(=O)[O-])C3)c2)C1.[Na+] [Example 204, sodium 1-[3-(6-tert-butyl-3,3-dimethyl-2,4-dihydro-1H-quinolin-8-yl)phenyl]azetidine-3-carboxylate]
18 | 98 | 0.008 | 115 | 0.013 | 70 to 80 | CC1N(c2cccc(N3CC(C(=O)O)C3)c2)c2ccc(C(F)(F)F)cc2OC1(C)C (centres unmarked) [Example 216, 1-[3-[2,2,3-trimethyl-7-(trifluoromethyl)-3H-1,4-benzoxazin-4-yl]phenyl]azetidine-3-carboxylate acid]
19 | 72 | 0.005 | 73 | 0.014 | 70 to 79 | CCC1(CC)CN(c2cccc(N3CC(C(=O)O)C3)c2)c2ccc(C(F)(F)F)cc2O1 [Example 218, 1-[3-[2,2-diethyl-7-(trifluoromethyl)-3H-1,4-benzoxazin-4-yl]phenyl]azetidine-3-carboxylic acid]

Source: patent publication US20170066717A1, “NEW PHENYLAZETIDINECARBOXYLATE OR -CARBOXAMIDE COMPOUNDS” (INVENTIVA, priority 2014, published 2017)
